Results reported in patent publication US12084403B2, “Linkers for antibody drug conjugates” (THE BOARD OF REGENTS OF THE UNIVERSITY OF TEXAS SYSTEM, priority 2017, dated 2024).
Starred links: 1 amine or outer side, 2 acyl side, 3 side chain; linkers in the order of their positions; H or OH if unused. Non-standard residues stand in square brackets, D forms with d. Residues, ends and D or L forms follow the SMILES beside them. *: point of attachment. EDDnp = O=[N+]([O-])c1ccc(NCCN*)c([N+](=O)[O-])c1; PABC = O=C(OCc1ccc(N[*:1])cc1)[*:2]; X1 = [N-]=[N+]=NCCOCCOCCOCC(=O)*; Cit = NC(=O)NCCC[C@H](N)C(=O)O; AEEEA = NCCOCCOCCOCC(=O)O

What was measured:
human cathepsin B = human cathepsin B (Homo sapiens, UniProt P07858); experiment: Cathepsin B-mediated cleavage of linear and branched probes in FRET assay; assay type: biochemical; conditions: for Slope (RFU/sec): quencher (EdDnp) release rate, linear regression, triplicate; for release of EdDnp in the presence of human cathepsin B: result in words
Method: FIG. 2. Quencher release rate determination in Förster resonance energy transfer (FRET) assay. Each slope reflecting drug (quencher) release rate was calculated by linear regression using Graph Pad Prism 7 software. […] All assays were performed in triplicate and error bars represent SEM.
These model linker units consisted of cathepsin B-cleavable valine-citrulline (Val-Cit) with or without polyethyleneglycol (PEG) spacers. This dipeptide sequence has been used in many successful ADCs including the FDA-approved ADC Adcetris® (Katz et al., 2011). The sequence is stable in circulation but in lysosomes undergoes cathepsin B-mediated cleavage, resulting in intracellular release of payload (Dubowchik et al., 2002). Tryptophan and 2,4-dinitrophenylethylenediamine (EdDnp) were installed as a fluorophore/quencher(s) pair, which is commonly used in the Förster resonance energy transfer (FRET) assay. The release of EdDnp from each synthetic model linker unit in the presence of human cathepsin B (Table 1 and Scheme 3) was assessed. […] Without wishing to be bound by any theory, it is surmised that the structural congestion of branched probe 3 due to the lack of PEG spacers prevents cathepsin B accessing Val-Cit moieties.

[1] = Plasma stability test using pyrene probes, BALB/c mouse plasma; assay type: in vitro ADME; conditions: undiluted BALB/c mouse plasma, 37° C., HPLC
Method: To test this hypothesis, a panel of peptide probes containing a various amino acid at the P3 position were evaluated for plasma stability at the small-molecule level (FIG. 13B). VCit- and tripeptide probes 12a-f were first synthesized by standard solid- and liquid-phase peptide synthesis and following carbamate formation. These model probes consisted of a XVCit-PABC unit where X is none (12a), serine (12b), glutamic acid (12c), aspartic acid (12d), lysine (12e), or hydroxyacetylglycine (12f). It was assumed that serine and hydroxyacetylglycine would serve as a mimic of the hydroxy-functionalized tripeptide ADC linker with increased mouse plasma stability reported by Dorywalska et al (Dorywalska et al., 2016). In particular, the 2-hydroxyacetamide group within probe 12f is the modifier that provided the greatest stability in their report. These linkers were covalently linked to 1-pyrenemethylamine, a surrogate of hydrophobic payloads with distinct UV absorbance at 341 nm (van Geel et al., 2015). Subsequently, probes 12a-f were incubated in undiluted BALB/c plasma at 37° C. and the amount of each probe was monitored by HPLC (FIG. 13C). […] Taking into account that all probes tested were stable in human plasma and no significant degradation was observed after 2 days (FIG. 14A), the accelerated degradation observed in KVCit probe 12e may indicate that a basic side chain at the P3 position provides an additional interaction with Ces1c leading to fast bond cleavage. […] Thus, the stabilizing effect of a neutral carbonyl group at the P3 position was not as significant as that of a negatively charged carboxylic acid side chain.
Plasma stability test using pyrene probes. Each test compound (10 mM in DMSO, 2 μL) was mixed with 1 μL of 1-pyrenemethylamine (10 mM in DMSO, as an internal standard) and incubated at 37° C. for 10 min. Pooled healthy human plasma or BALB/c mouse plasma (197 μL, Innovative Research) was added to the mixture, followed by incubation at 37° C. Aliquots (10 μL) were collected at each time point (0, 1, 6, 24, 48, and 96 h) and 40 μL of cold acetonitrile containing 1% formic acid was added to precipitate proteins. Supernatant of each sample was obtained and analyzed for quantification by analytical HPLC as described above. All assays were performed at least three times in technical duplicate, and data shown are representative of the replicates.

Human liver cathepsin B = biological target: T1, Human liver cathepsin B (Homo sapiens, UniProt P07858); experiment: Cathepsin B-mediated cleavage assay using pyrene probes; assay type: biochemical; conditions: 37° C., result in words
T1 construct: Human liver cathepsin B (20 ng/μL, 100 μL, EMD Millipore); purchased EMD Millipore; host or cells: human liver (tissue-derived, as the name says)
Method: Next, all probes were tested for responsiveness to human cathepsin B-mediated cleavage (FIG. 14B).
Cathepsin B-mediated cleavage assay using pyrene probes. Each test compound (10 mM in DMSO, 2 μL) was mixed with 97 μL of MES buffer (25 mM MES-Na, 1 mM DTT, pH 5.0) and 1 μL of 1-pyrenemethylamine (10 mM in DMSO, as an internal standard). The mixture was incubated at 37° C. for 10 min. Human liver cathepsin B (20 ng/μL, 100 μL, EMD Millipore) in MES buffer was added to the mixture, followed by incubation at 37° C. Aliquots (10 μL) were collected at each time point (0, 0.5, 1, 3, 24, and 48 h). Cold acetonitrile containing 1% formic acid (40 μL) was added to precipitate proteins. Precipitated proteins were separated by centrifugation (15,000 g, 4° C., 30 min) and supernatant of each sample was analyzed for quantification by analytical HPLC (UV absorption at 342 nm). The amount of each probe was normalized to the peak area of the internal standard. All assays were performed at least three times in technical duplicate, and data shown are representative of the replicates.

Compound	Slope (RFU/sec) (human cathepsin B)	release of EdDnp in the presence of human cathepsin B (human cathepsin B)	t1/2 [1]	human cathepsin B-mediated cleavage rate (Human liver cathepsin B)
CC(=O)N[C@@H](Cc1c[nH]c2ccccc12)C(=O)N[C@@H](CCCCNC(=O)COCCOCCOCCN=[N+]=[N-])C(=O)NCCOCCOCCOCC(=O)N[C@H](C(=O)N[C@@H](CCCNC(N)=O)C(=O)Nc1ccc(COC(=O)NCCNc2ccc([N+](=O)[O-])cc2[N+](=O)[O-])cc1)C(C)C [probe 2, Ac-Trp-Lys(-PEG3-N3)-PEG3-Val-Cit-PABC-EdDnp] (Ac-WK(X1)[AEEEA]V[Cit][PABC]-EDDnp)	1.81 ± 0.07 RFU/sec	released EdDnp more efficiently than Linear PEG (−) 1	–	–
CC(=O)N[C@@H](Cc1c[nH]c2ccccc12)C(=O)N[C@@H](CCCCn1cc(CCC(=O)N[C@H](C(=O)N[C@@H](CCCNC(N)=O)C(=O)Nc2ccc(COC(=O)NCCNc3ccc([N+](=O)[O-])cc3[N+](=O)[O-])cc2)C(C)C)nn1)C(=O)N[C@H](C(=O)N[C@@H](CCCNC(N)=O)C(=O)Nc1ccc(COC(=O)NCCNc2ccc([N+](=O)[O-])cc2[N+](=O)[O-])cc1)C(C)C [probe 3]	0.03 ± 0.06 RFU/sec	marginal release of EdDnp	–	–
CC(=O)N[C@@H](Cc1c[nH]c2ccccc12)C(=O)N[C@@H](CCCCNC(=O)COCCOCCOCCn1cc(CCC(=O)N[C@H](C(=O)N[C@@H](CCCNC(N)=O)C(=O)Nc2ccc(COC(=O)NCCNc3ccc([N+](=O)[O-])cc3[N+](=O)[O-])cc2)C(C)C)nn1)C(=O)NCCOCCOCCOCC(=O)N[C@H](C(=O)N[C@@H](CCCNC(N)=O)C(=O)Nc1ccc(COC(=O)NCCNc2ccc([N+](=O)[O-])cc2[N+](=O)[O-])cc1)C(C)C [probe 4]	1.56 ± 0.05 RFU/sec	comparable to that of linear PEG (+) probe 2	–	–
Ac-Asp-Val-Cit-PABC-Sar-pyrene [probe 12d]	–	–	14.0 h	–
Ac-Glu-Val-Cit-PABC-Sar-pyrene [probe 12c]	–	–	19.1 h	–
Ac-Lys-Val-Cit-PABC-Sar-pyrene [probe 12e]	–	–	0.9 h	–
Ac-Ser-Val-Cit-PABC-Sar-pyrene [probe 12b]	–	–	3.1 h	comparable with that of VCit probe 12a
Ac-Val-Cit-PABC-Sar-pyrene [probe 12a]	–	–	2.3 h	–
HOCH2CO-Gly-Val-Cit-PABC-Sar-pyrene [probe 12f]	–	–	5.0 h	–
